Measurements as given in patent publication US4211773A, “5-Substituted 1-(2'-Deoxy-2'-substituted-β-D-arabinofuranosyl)pyrimidine nucleosides” (Sloan Kettering Institute for Cancer Research, priority 1978, dated 1980).
Values after ≈ are worked out from the molar mass of the structure shown. Read-outs that look alike come from different tables or passages of the source.

Experiments:
[1] = test system: herpes simplex virus (HSV); conditions: compared with corresponding deoxyuridine analogs; cited from earlier work
[2] = test system: herpesvirus infected cells; conditions: cells in which deoxycytidine deaminase is present; cited from earlier work
HSV type 1 = conditions: cited from earlier work
HSV type 2 = conditions: cited from earlier work
equine herpesvirus = conditions: cited from earlier work
P815 = experiment: Cytotoxicity, inhibition of growth of P815 cells in vitro; format: cell-based; conditions: Mus musculus, 96 hrs. incubation at 37° C., read-out: Cytoxicity ID50
Protocol: (§1) *****Concentration required for 50% inhibition of growth of cells in
(§2) vitro after 96 hrs. incubation at 37° C.

[3] = test system: Herpes Simplex Virus--Type 1 (HSV-1) strain 2931; experiment: Capacity to suppress HSV-1 replication in monolayers of Vero cells; format: cell-based; conditions: 24 hr, read-out: Anti-viral Activity (% reduction of HSV1 titer); for activity at 0.01 µg/mL: Human alphaherpesvirus 1, 0.01 μg/ml; for activity at 0.1 µg/mL: Human alphaherpesvirus 1, 0.1 μg/ml; for activity at 1 µg/mL: Human alphaherpesvirus 1, 1.0 μg/ml; for activity at 10 µg/mL: Human alphaherpesvirus 1, 10 μg/ml; for activity at 100 µg/mL: Human alphaherpesvirus 1, 100 μg/ml
Protocol: The capacity of 2'-fluoro-arabinosyl nucleosides (Formulas IV and V shown below) to suppress replication of Herpes Simplex virus-type 1 (HSV-1) in monolayers of Vero cells is shown in Table I.
Vero cell monolayers were infected with approximately 1 plaque forming unit (PFU) per cell of Herpes Simplex Virus--Type 1 (HSV-1) strain 2931 and incubated for 2 hr. Maintenance media containing the various concentrations of drugs were used to overlay the monolayers. Supernatant fluids were collected 24 hr. later and titered on Vero cell monolayers described in Lopez et al, Ann. N.Y. Acad. Sci., 284, 351 (1977). Percent inhibition over controls was calculated.

L51784 = experiment: Cytotoxicity, inhibition of growth of L51784 cells in vitro; format: cell-based; conditions: 96 h, read-out: Cytoxicity ID50
Protocol: as §1, §2

HSV-1 strain 2931 = experiment: In vivo activity in A/J mice infected with HSV-1 strain 2931; conditions: for mice surviving the 21 day experiment: starting 24 hours after inoculation
Protocol: (§3) The effective doses for 1-(2-deoxy-2-fluoro-β-D-arabinofuranosyl)-5-iodocytosine are given below. 1-(2-deoxy-2-fluoro-β-D-arabinofuranosyl)-5-iodocytosine is diluted in physiological saline, filter sterilized, and inoculated. This compound is readily soluble at concentrations of 25 mg/ml in saline. In mouse studies, the drug is inoculated by the intraperitoneal route.
1-(2-deoxy-2-fluoro-β-D-arabinofuranosyl)-5-iodocytosine was also shown to be active in vivo. A/J mice were inoculated with approximately 50 LD50 of HSV-1 strain 2931 intraperitoneally and then treated with 1-(2-deoxy-2-fluoro-β-D-arabinofuranosyl)-5-iodocytosine starting 24 hours later. 1-(2-deoxy-2-fluoro-β-D-arabinofuranosyl)-5-iodocytosinewas given at 10 and 1 mg/kg/da for 5 days. Untreated mice died 8 days after inoculation. Five of 10 mice treated with 10 mg/kg/day survived the 21 day experiment. Two of 10 treated with 1 mg/kg/da survival the 21 day experiment and the remainder died an average of 10 days after inoculation.

[4] = test system: Herpes Simplex Virus - type 2; experiment: Inhibition of Herpes Simplex Virus type 2 replication (effective doses); format: cell-based; conditions: for EC50: read-out: ED50 (the source's name)
Protocol: (§4) Compounds of the invention show anti-viral and anti-tumor activity. 1-(2-Deoxy-2-fluoro-β-D-arabinofuranosyl)-5-iodocytosine inhibits Herpes Simplex Virus type 1 and type 2 replication. HFEM, Patton, 2931, and F-strain HSV-1 and 333 and G-strain HSV-2 are affected at concentrations of 1-(2-deoxy-2-fluoro-β-D-arabinofuranosyl)-5-iodocytosine 0.01 μM (approximately 0.004 μg/ml).
as §3

[5] = Toxicity to normal lymphoblastoid cells; format: cell-based; conditions: read-out: not toxic at concentrations of up to
Protocol: Since 1-(2-deoxy-2-fluoro-β-D-arabinofuranosyl)-5-iodocytosine was not toxic to normal lymphoblastoid cells at concentrations of up to 10 μM, the compound is believed to affect tumor cells at concentrations 1/100th those needed to suppress normal cell replication. Compounds of the invention can be used as a selective treatment for tumors expressing the fetal thymidine kinase which includes most tumors.

Solubility in saline = format: physicochemical; conditions: read-out: readily soluble at concentrations of
Protocol: as §3

[6] = test system: K 562 cells, a cell line of chronic myologenous leukemia cells; experiment: Suppression of replication of K 562 cells in vitro; format: cell-based; conditions: Homo sapiens, K562, read-out: concentration found to suppress replication of K 562 cells
Protocol: Since 1-(2-deoxy-2-fluoro-β-D-arabinofuranosyl)-5-iodocytosine was active against a virus which uses fetal thymidine kinase and since many tumor cells express high concentrations of fetal thymidine kinase, it was tested as a selective anti-tumor agent.

[7] = test system: Cytomegalovirus (CMV strain AD 169); experiment: Effective dose against Cytomegalovirus strain AD-169; CMV plaque formation on WI-38 cells; format: cell-based; conditions: for minimal effective concentration: Human betaherpesvirus 5, CMV strain AD 169, WI-38 cells
Protocol: as §3

[8] = test system: thymidine kinase negative strain of HSV-1 (HSV-1 TK^-); experiment: Activity against thymidine kinase negative HSV-1; format: cell-based; conditions: Human alphaherpesvirus 1, read-out: not affected at concentrations of up to
[9] = test system: Herpes Simplex Virus - type 1; experiment: Inhibition of Herpes Simplex Virus type 1 replication (effective doses); format: cell-based; conditions: for EC50: read-out: ED50 (the source's name)
Protocol: as §4, §3

herpes infections = conditions: therapeutic trials in herpes infections; cited from earlier work
several DNA virus = conditions: cell culture; cited from earlier work
anti-viral = conditions: cited from earlier work

Row | Compound | IC50 (P815) [µg/mL] | activity at 0.01 µg/mL [3] [%] | activity at 0.1 µg/mL [3] [%] | activity at 1 µg/mL [3] [%] | activity at 10 µg/mL [3] [%] | IC50 (L51784) [µg/mL] | also measured
1 | Nc1nc(=O)n([C@H]2C[C@H](O)[C@@H](CO)O2)cc1Br [5-Bromo-2'-deoxycytidine] | – | – | – | – | – | – | inhibition of HSV replication [1]: as effectively as their corresponding deoxyuridine analogs
2 | Cc1cn([C@@H]2O[C@H](CO)[C@@H](O)[C@@H]2O)c(=O)nc1N [5-Methyl-ara-C] | – | – | – | – | – | – | activity against herpesvirus infected cells [2]: active
3 | Nc1nc(=O)n([C@H]2C[C@H](O)[C@@H](CO)O2)cc1I [5-iodo-2'-deoxycytidine] | – | – | – | – | – | – | inhibition of HSV replication [1]: as effectively as their corresponding deoxyuridine analogs
4 | Cc1cn([C@@H]2O[C@H](CO)[C@@H](O)[C@@H]2O)c(=O)[nH]c1=O [Ara-T] | – | – | – | – | – | – | activity against HSV type 1 (HSV type 1): active; activity against HSV type 2 (HSV type 2): active; activity against equine herpesvirus (equine herpesvirus): active
5 | Nc1ccn([C@@H]2O[C@H](CO)[C@@H](O)[C@@H]2F)c(=O)n1 [IVa, 1-(2-deoxy-2-fluoro-β-D-arabinofuranosyl)cytosine, reference compound] | 0.05 (≈ 0.204 µM) | < 90 | 90 to 99 | 90 to 99 | 99.9 to 100 | 0.05 (≈ 0.204 µM) | activity at 100 µg/mL [3]: 100%
6 | Nc1nc(=O)n([C@@H]2O[C@H](CO)[C@@H](O)[C@@H]2F)cc1F [IVb, 1-(2-deoxy-2-fluoro-β-D-arabinofuranosyl)-5-fluorocytosine] | 0.4 (≈ 1.52 µM) | < 90 | 90 to 99 | 99 to 99.9 | 99.9 to 100 | 0.5 (≈ 1.9 µM) | –
7 | Nc1nc(=O)n([C@@H]2O[C@H](CO)[C@@H](O)[C@@H]2F)cc1Cl [IVc, 1-(2-deoxy-2-fluoro-β-D-arabinofuranosyl)-5-chlorocytosine] | ~1 (≈ 3.58 µM) | < 90 | < 90 | < 90 | 99.9 to 100 | 1.4 (≈ 5.01 µM) | –
8 | Nc1nc(=O)n([C@@H]2O[C@H](CO)[C@@H](O)[C@@H]2F)cc1Br [IVd, 1-(2-deoxy-2-fluoro-β-D-arabinofuranosyl)-5-bromocytosine] | > 10 | < 90 | 90 to 99 | 99 to 99.9 | 100 | ~10 (≈ 30.9 µM) | –
9 | Nc1nc(=O)n([C@@H]2O[C@H](CO)[C@@H](O)[C@@H]2F)cc1I [IVe, 1-(2-deoxy-2-fluoro-β-D-arabinofuranosyl)-5-iodocytosine] | 14 (≈ 37.7 µM) | 90 to 99 | 99 to 99.9 | 100 | 100 | 48 (≈ 129 µM) | average time of death after inoculation (non-surviving mice) (HSV-1 strain 2931; 1 mg/kg/da for 5 days, intraperitoneal, remainder of mice): 10 days; mice surviving the 21 day experiment (HSV-1 strain 2931; 1 mg/kg/da for 5 days, intraperitoneal): Two of 10; mice surviving the 21 day experiment (HSV-1 strain 2931; 10 mg/kg/day for 5 days, intraperitoneal): Five of 10; in vivo activity against HSV-1 (HSV-1 strain 2931; 10 and 1 mg/kg/da for 5 days): active in vivo against HSV-1; EC50 ([4]; Human alphaherpesvirus 2, HSV-2 strain 333): 50 nM; EC50 ([4]; Human alphaherpesvirus 2, HSV-2 strain G): 10 nM; minimal effective concentration ([4]; Human alphaherpesvirus 2, 333 and G-strain HSV-2, read-out: concentration at which HSV-2 strains are affected): 0.01 µM; MNTC [5]: > 10 µM; activity at 100 µg/mL [3]: 100%; solubility (Solubility in saline): ≥ 25 mg/mL; minimal effective concentration [6]: 0.04 µg/mL; EC50 ([7]; Human betaherpesvirus 5, AD169, WI-38, CMV strain AD-169, read-out: ED50 (the source's name)): 1000 nM; minimal effective concentration ([7]; read-out: concentration found to reduce CMV plaque formation): 1 µM; minimal effective concentration ([7]; read-out: concentration found to reduce CMV plaque formation (mass units)): 0.4 µg/mL; minimal effective concentration [8]: > 10 µM; EC50 ([9]; Human alphaherpesvirus 1, HSV-1 strain 2931): 7 nM; EC50 ([9]; Human alphaherpesvirus 1, HSV-1 strain HFEM): < 10 nM; EC50 ([9]; Human alphaherpesvirus 1, HSV-1 strain McIntyre): < 10 nM; EC50 ([9]; Human alphaherpesvirus 1, HSV-1 strain Patton): 10 nM; minimal effective concentration ([9]; Human alphaherpesvirus 1, HFEM, Patton, 2931 and F-strain HSV-1, read-out: concentration at which HSV-1 strains are affected): 0.01 µM
10 | O=c1ccn([C@@H]2O[C@H](CO)[C@@H](O)[C@@H]2F)c(=O)[nH]1 [Va] | > 10 | < 90 | < 90 | 99 to 99.9 | 99 to 99.9 | > 10 | –
11 | O=c1[nH]c(=O)n([C@@H]2O[C@H](CO)[C@@H](O)[C@@H]2F)cc1F [Vb, 1-(2-deoxy-2-fluoro-β-D-arabinofuranosyl)-5-fluorouracil] | 0.7 (≈ 2.65 µM) | < 90 | 99 to 99.9 | 100 | 100 | 1 (≈ 3.79 µM) | –
12 | O=c1[nH]c(=O)n([C@@H]2O[C@H](CO)[C@@H](O)[C@@H]2F)cc1Cl [Vc, 1-(2-deoxy-2-fluoro-β-D-arabinofuranosyl)-5-chlorouracil] | 3.4 (≈ 12.1 µM) | < 90 | < 90 | < 90 | 100 | 1.4 (≈ 4.99 µM) | –
13 | O=c1[nH]c(=O)n([C@@H]2O[C@H](CO)[C@@H](O)[C@@H]2F)cc1Br [Vd, 1-(2-deoxy-2-fluoro-β-D-arabinofuranosyl)-5-bromouracil] | 1.6 (≈ 4.92 µM) | < 90 | < 90 | 99 to 99.9 | 100 | 0.9 (≈ 2.77 µM) | –
14 | O=c1[nH]c(=O)n([C@@H]2O[C@H](CO)[C@@H](O)[C@@H]2F)cc1I [Ve, 1-(2-deoxy-2-fluoro-β-D-arabinofuranosyl)-5-iodouracil] | 0.8 (≈ 2.15 µM) | < 90 | 90 to 99 | 99.9 to 100 | 100 | 0.9 (≈ 2.42 µM) | –
15 | Nc1ccn([C@@H]2O[C@H](CO)[C@@H](O)[C@@H]2O)c(=O)n1 [ara-C, 1-β-D-Arabinofuranosylcytosine] | – | – | – | – | – | – | therapeutic to toxic ratio (herpes infections): unity; inhibition of multiplication of several DNA virus (several DNA virus): inhibits the multiplication of several DNA virus in cell culture
16 | O=c1ccn([C@@H]2O[C@H](CO)[C@@H](O)[C@@H]2O)c(=O)[nH]1 [ara-U, 1-β-D-arabinofuranosyluracil] | – | – | – | – | – | – | anti-viral activity (anti-viral): devoid of anti-viral or anti-cancer activity
